Source: patent EP0200024B1, “3-Cyano-pyridines, process for their preparation and their pharmaceutical use” (ARZNEIMITTELWERK DRESDEN GmbH, priority 1985, dated 1986)
Read-outs that look alike come from different tables or passages of the source.

Experiments:
Narkotisierter Hund = test: Anaesthetised dog i.v. (left ventricular pressure dp/dtmax, arterial pressure); assay type: in vivo, Bastardhunden; settings: for ED10 / ED50: Canis lupus familiaris, iv; for ED10: read-out: 10%ige Senkung des diastolischen Blutdruckes bei einer Dosis von; for ED50: read-out: 50%ige Steigerung des Kontraktilitätsparameters dp/dtmax bei einer Dosis von; for Steigerungen des Kontraktilitätsparameters dp/dtmax: result in words
Description: Die Untersuchungen wurden an Bastardhunden in Chloralose-Urethan-Narkose bei Prämedikation mit Morphinhydrochlorid unter spontaner Atmung durchgeführt. . Der linksventrikuläre Druck wurde mittels Tipmanometer und der arterielle Druck wurde über Herzkatheter via A. brachialis gemessen [vgl. K. Femmer et al., Pharmazie 30 642 (1975)]. Unter dem Einfluß der 3-Cyan-2-(heteroalkyl-1-hetero)-pyridine der Formel I wurden eine dosisabhängige beträchtliche. Steigerung der Kontraktionskraft des Herzens sowie teilweise eine signifikante Senkung des peripheren Gesamtwiderstandes beobachtet. So zeigen beispielsweise die Verbindungen von Beispiel 3.2, 4.1, 4.3 und 4.5 eine 50%ige Steigerung des Kontraktilitätsparameters dp/dtmax bei einer Dosis von 6,1 · 10⁻⁶, 1,4 · 10⁻⁶, 2,5 · 10⁻⁶ bzw. 2.0 · 10⁻⁶ mol/kg sowie eine 10%ige Senkung des diastolischen Blutdruckes als relevantes Maß einer Abnahme des peripheren Gesamtwiderstandes bei einer Dosis von 2,1 · 10⁻⁶, 1,6 · 10⁻⁶,1,6 · 10⁻⁶ bzw. 1,2 · 10⁻⁶ mol/kg. Die Verbindung von Beispiel 2.1 zeigt bei einer Dosis von 5 mg/kg eine Steigerung von dp/dtmax um 126 % Für die Verbindung von Beispiel 2.1 wurde bei einer Dosis von 5 mg/kg eine Senkung des diastolischen Blutdruckes um 37 % gefunden.

[1] = tested on: Isolierter, spontanaktiver Vorhof des Meerschweinchens; test: Isolated, spontaneously active atrium (inotropy and frequency); parameters: species or system Meerschweinchen; settings: for positiv inotrope Wirkung / chronotrope Wirkung: result in words
Method: Für die Versuche wurden männliche Meerschweinchen mit einer Körpermasse von 400-500 g verwendet. Am isolierten, spontanaktiven Vorhof erfolgte nach einer 60 Min. währenden Adaptationszeit der Organpräparate in 32 °C temperierter carbogen-durchperlter Tyrodelösung die Untersuchung der Beeinflussung von Inotropie und Frequenz unter Einwirkung der 3-Cyan-2-(heteroalkyl-1-hetero)-pyridine der Formel I. Eine Reihe von Verbindungen zeigte eine starke und dosisabhängige positiv inotrope Wirkung. Bei Verwendung einer Tyrodelösung nach A.A. Alousi et al. [Circ. Res. 45, 666 (1979)] zeigen beispielsweise die Verbindungen von Beispiel 1.2, 1.7, 1.27, 3.3, 3.4, 3.5, 4.1 bzw. 4.3 eine 30%ige Steigerung der Inotropie bei Konzentrationen von 5,6 · 10⁻⁵, 5,4 · 10⁻⁶, 5,0 · 10⁻⁵, 5,8 · 10⁻⁵, 9,1 · 10⁻⁵, 1,6 · 10⁻⁴, 3,5 · 10⁻⁵ und 5,4 · 10⁻⁵ mol/l. Die Verbindung von Beispiel 1.27 zeigt bei einer Konzentration von 5 · 10⁻⁵ mol/l eine Abnahme der Frequenz um 15 %. Die Verbindung von Beispiel 1.8 zeigt bei Verwendung einer Tyrodelösung mit der Zusammensetzung (mmol/l): NaCl 136,9; KCl 2,7; CaCl₂ 1,8; MgCl₂ 1,0; NaHCO₃ 11,9; NaH₂PO₄ 0,4; Glucose 16,5 eine 30%ige Steigerung der Inotropie bei einer Konzentration von 1,2 · 10⁻⁴ mol/l.

Langendorff-Herz = test: Langendorff heart in vitro (isolated perfused, freely beating heart; inotropy, chronotropy, coronary flow); parameters: species or system Meerschweinchen; activation: dose or concentration left out as unconfirmed; settings: for activation at 10000 µM / activation: 0,1 ml of a 10⁻² molar stock solution into the aorta; for activation at 10000 µM: read-out: Erhöhung der Inotropie; for activation: read-out: Erhöhung des Koronardurchflusses; for EC30: molarity of solution, 0,1 ml bolus into aortic stump, giving 30 % increase of inotropy, read-out: Erhöhung der Inotropie um 30 % bei Applikation von je 0,1 ml einer ... molaren Lösung; for EC100: molarity of solution, 0,1 ml bolus, giving 100 % increase of coronary flow, read-out: Erhöhung des Koronardurchflusses um 100 % bei Applikation von je 0,1 ml einer ... molaren Lösung; for positiv chronotrope Wirkung / positiv inotrope Wirkung: result in words
Method: Für die Versuche wurden männliche Meerschweinchen mit einer, Körpermasse von 300-350 g eingesetzt. An isolierten, mit carbogenbegaster Tyrodelösung von 37 °C durchströmten, frei schlagenden Herzen, wurden unter konstantem Druck die Kontraktionskraft (Inotropie), die Frequenz (Chronotropie) und der Koronardurchfluß unter dem Einfluß der 3-Cyan-2-(heteroalkyl-1-hetero)-5-(pyrid-4-yl)-pyridine der Formel I untersucht. Dazu wurden jeweils 0,1 ml der entsprechend molaren Substanzlösungen als Bolus direkt in den Aortenstumpf appliziert. Die 3-Cyan-2-(heteraalkyl-1-hetera)-5-(pyrid-4-yl)-pyridine zeigten eine teilweise starke und konzentrationsabhängige positiv inotrope und koronardilatatorische Wirkung. Die positiv chronotrope Wirkung war deutlich geringer, ausgeprägt. Beispielsweise zeigen die Verbindungen der Beispiele 1.2, 1.6, 1.7 und 1.8 eine Erhöhung der Inotropie um 30 % bei Applikation von je 0,1 ml einer 3,0 · 10⁻³, 2,2 · 10⁻², 2,0 · 10⁻⁴ bzw. 1,0 · 10⁻³ molaren Lösung und eine Erhöhung des Koronardurchflusses um 100 % bei Applikation von je 0,1 ml einer 6,0 · 10⁻³, 6,5 · 10⁻², 1,1 · 10⁻² bzw. 1,3 · 10⁻² molaren Lösung. Die Verbindungen der Beispiele 2.2, 2.3 und 2.4 weisen bei Applikation von je 0,1 ml einer 10⁻² molaren Stammlösung in die Aorta eine Erhöhung der Inotropie um 51 %, 38 % und 31 % sowie eine Erhöhung des Koronardurchflusses um 59 %, 99 % bzw. 88 % auf.

[2] = tested on: Samenleiter von Meerschweinchen; test: Noradrenaline antagonism in vitro (noradrenaline contraction of isolated vas deferens); settings: Cavia porcellus; compound given 1 min before submaximal noradrenaline concentration; read-out: ED₅₀-Werte (Hemmung der Noradrenalinkontraktion)
Method: Die in Warmblüterphosphattyrode präparierten Samenleiter von Meerschweinchen (ca. 400 g Körpermasse) wurden 60 Min. im Organbad adaptiert. Anschließend wurden die Kontraktionen unter Gabe von Noradrenalin isotonisch registriert. Die 3-Cyan-2-(heteroalkyl-1-hetero)-pyridine der Formel I wurden 1 Min vor den jeweils submaximal reagierenden Noradrenalinkonzentrationen in das Organbad appliziert. […] Für die Verbindungen von Beispiel 1.2, 1.6, 1.7 und 1.8 ergaben sich beispielsweise ED₅₀-Werte von 2,2 · 10⁻⁵, 1,6 · 10⁻⁴, 2,5 · 10⁻⁴ sowie 1,3 · 10⁻⁴ mol/l.

Meerschweinchen = test: Inhalative histamine bronchospasm, oral administration; assay type: in vivo; settings: Cavia porcellus, 1 h, 60 min before inhaled 0,1 % histamine, 10 animals per dose, read-out: ED₅₀-Werte (Schutz vor Histamin-Bronchialkonstriktionen)
Method: Eine, in einem Ultraschallverdampfer vernebelte 0,1 %ige Histaminlösung induziert an männlichen Meerschweinchen (Körpermasse 200-300 g) innerhalb von 2 bis 3 Min. typische Bronchialkonstriktionen. Durch orale Verabreichung geeigneter Dosen der 3-Cyan-2-(heteroalkyl-1-hetero)-pyridine der Formel I 60 Min. vor der inhalativen Histamingabe wurden die Tiere innerhalb einer festgelegten Expositionszeit vor den durch Histamin verursachten Bronchialkonstriktionen geschützt. Für die Derivate von Beispiel 1.2, 1.6, 1.7 und 1.8 ergeben sich z.B. aus je 10 Tieren pro Dosis ED₅₀-Werte von 4,3 · 10⁻⁴, 6,0 · 10⁻⁴, 3,3 · 10⁻⁴ sowie 2,5 · 10⁻⁴ mol/kg, was auf deutliche bronchodilatatorische bzw. antiallergische Wirkungen hinweist.

[3] = Tyrode solution according to A.A. Alousi et al., 32 °C, read-out: 30%ige Steigerung der Inotropie bei Konzentrationen von

In the case of `COCCOc1ncc(-c2ccncc2)cc1C#N` [Beispiel 2.1, 3-Cyan-2-(2-methoxy-ethoxy)-5-(pyrid-4-yl)-pyridin], the “Senkung des diastolischen Blutdruckes” value (Narkotisierter Hund; dose 5 mg/kg) is reported as 37% and the Steigerung von dp/dtmax (Narkotisierter Hund; dose 5 mg/kg) is reported as 126%.

For `Cc1nc(NCCO)c(C#N)cc1-c1ccncc1` [Beispiel 3.3, 3-Cyan-2-(2-hydroxy-ethylamino)-6-methyl-5-(pyrid-4-yl)-pyridin], the EC30 [1, 3] was 58 µM and the “positiv inotrope Wirkung” value [1] was “gute und dosisabhängige positiv inotrope Wirkung”.

`N#Cc1cc(-c2ccncc2)cnc1OCCCO` [Beispiel 2.3, 3-Cyan-2-(3-hydroxy-propoxy)-5-(pyrid-4-yl)-pyridin] showed an activation at 10000 µM (Langendorff-Herz) of 38% and an activation (Langendorff-Herz) of 99%.

Work on `N#Cc1cc(-c2ccncc2)cnc1NCCCO` [Beispiel 1.8, 3-Cyan-2-(3-hydroxy-propylamino)-5-(pyrid-4-yl)-pyridin] yielded an IC50 [2] of 130 µM, an EC30 (Langendorff-Herz) of 1000 µM and an EC100 (Langendorff-Herz) of 13000 µM. The “positiv chronotrope Wirkung” value (Langendorff-Herz) was “relative geringer positiv chronotroper Aktivität”, the “positiv inotrope Wirkung” value (Langendorff-Herz) was “ausgeprägte und dosisabhängige positiv inotrope Wirkung” and the ED50 (Meerschweinchen) was 250 µmol/kg. The EC30 ([1]; Tyrode solution (mmol/l): NaCl 136,9, KCl 2,7, CaCl₂ 1,8, MgCl₂ 1,0, NaHCO₃ 11,9, NaH₂PO₄ 0,4, Glucose 16,5, read-out: 30%ige Steigerung der Inotropie bei einer Konzentration von) was 120 µM, the “chronotrope Wirkung” value [1] was “relative geringer positiv chronotroper Aktivität” and the “positiv inotrope Wirkung” value [1] was “ausgeprägte und dosisabhängige positiv inotrope Wirkung”.

With `CCC(=O)OCCNc1ncc(-c2ccncc2)cc1C#N` [Beispiel 4.5, 3-Cyan-2-(2-propionyloxy-ethylamino)-5-(pyrid-4-yl)-pyridin] the ED10 (Narkotisierter Hund) was 1.2 µmol/kg, the ED50 (Narkotisierter Hund) was 2 µmol/kg and the “Steigerungen des Kontraktilitätsparameters dp/dtmax” value (Narkotisierter Hund) was “dosisabhängige beträchtliche Steigerungen”.

With `Cc1nc(N2CCOCC2)c(C#N)cc1-c1ccncc1` [Beispiel 3.2, 3-Cyan-6-methyl-2-morpholino-5-(pyrid-4-yl)-pyridin] the ED10 (Narkotisierter Hund) was 2.1 µmol/kg, the ED50 (Narkotisierter Hund) was 6.1 µmol/kg and the “Steigerungen des Kontraktilitätsparameters dp/dtmax” value (Narkotisierter Hund) was “dosisabhängige beträchtliche Steigerungen”.

`Cc1nc(NCC(C)O)c(C#N)cc1-c1ccncc1` (stereo not shown) [Beispiel 3.5, 3-Cyan-2-(2-hydroxy-propylamino)-6-methyl-5-(pyrid-4-yl)-pyridin] gave an EC30 [1, 3] of 160 µM.

Compound `N#Cc1cc(-c2ccncc2)cnc1N(CCO)CCO` [Beispiel 1.6, 2-[Bis-(2-hydroxy-ethyl)-amino]-3-cyan-5-(pyrid-4-yl)-pyridin] has an IC50 [2] of 160 µM, an EC30 (Langendorff-Herz) of 22000 µM and an EC100 (Langendorff-Herz) of 65000 µM. The ED50 (Meerschweinchen) was 600 µmol/kg.

For `Cc1nc(NCCCO)c(C#N)cc1-c1ccncc1` [Beispiel 3.4, 3-Cyan-2-(3-hydroxy-propylamino)-6-methyl-5-(pyrid-4-yl)-pyridin], the EC30 [1, 3] was 91 µM and the “positiv inotrope Wirkung” value [1] was “gute und dosisabhängige positiv inotrope Wirkung”.

For `CC(=O)OCCNc1ncc(-c2ccncc2)cc1C#N` [Beispiel 4.1, 2-(2-Acetoxy-ethylamino)-3-cyan-5-(pyrid-4-yl)-pyridin], the ED10 (Narkotisierter Hund) was 1.6 µmol/kg, the ED50 (Narkotisierter Hund) was 1.4 µmol/kg and the “Steigerungen des Kontraktilitätsparameters dp/dtmax” value (Narkotisierter Hund) was “dosisabhängige beträchtliche Steigerungen”. The EC30 [1, 3] was 35 µM and the “positiv inotrope Wirkung” value [1] was “gute und dosisabhängige positiv inotrope Wirkung”.

For `CC(=O)OCCOc1ncc(-c2ccncc2)cc1C#N` [Beispiel 4.3, 2-(2-Acetoxy-ethoxy)-3-cyan-5-(pyrid-4-yl)-pyridin], the ED10 (Narkotisierter Hund) was 1.6 µmol/kg, the ED50 (Narkotisierter Hund) was 2.5 µmol/kg and the “Steigerungen des Kontraktilitätsparameters dp/dtmax” value (Narkotisierter Hund) was “dosisabhängige beträchtliche Steigerungen”. For the same compound, the EC30 [1, 3] was 54 µM and the “positiv inotrope Wirkung” value [1] was “gute und dosisabhängige positiv inotrope Wirkung”.

In the case of `COc1ccc(-c2cc(C#N)c(N3CCOCC3)nc2C)cc1OC` [3-Cyan-5-(3,4-dimethoxy-phenyl)-6-methyl-2-morpholino-pyridin], the “Steigerungen des Kontraktilitätsparameters dp/dtmax” value (Narkotisierter Hund) is reported as “dosisabhängige beträchtliche Steigerungen”.

In the case of `CC(O)COc1ncc(-c2ccncc2)cc1C#N` (stereo not shown) [Beispiel 2.4, 3-Cyan-2-(2-hydroxy-propoxy)-5-(pyrid-4-yl)-pyridin], the activation at 10000 µM (Langendorff-Herz) is reported as 31% and the activation (Langendorff-Herz) is reported as 88%.

In the case of `Cc1nc(N2CCOCC2)c(C#N)cc1-c1ccccc1` [3-Cyan-6-methyl-2-morpholino-5-phenyl-pyridin], the “Steigerungen des Kontraktilitätsparameters dp/dtmax” value (Narkotisierter Hund) is reported as “dosisabhängige beträchtliche Steigerungen”.

`N#Cc1cc(-c2ccncc2)cnc1N1CCN(C(=O)c2ccco2)CC1` [Beispiel 1.27, 3-Cyan-2-[4-(furan-2-yl-carbonyl)-piperazino]-5-(pyrid-4-yl)-pyridin] was tested, and the inhibition at 50 µM ([1]; Cavia porcellus, at a concentration of 5 · 10⁻⁵ mol/l, read-out: Abnahme der Frequenz) was 15%, the EC30 [1, 3] was 50 µM and the “chronotrope Wirkung” value [1] was “negativ chronotroper Wirkung”. For the same compound, the “positiv inotrope Wirkung” value [1] was “gute positiv inotrope Wirkung”.

With `N#Cc1cc(-c2ccncc2)cnc1OCCO` [Beispiel 2.2, 3-Cyan-2-(2-hydroxy-ethoxy-)-5-(pyrid-4-yl)-pyridin] the activation at 10000 µM (Langendorff-Herz) was 51%, the activation (Langendorff-Herz) was 59% and the “positiv chronotrope Wirkung” value (Langendorff-Herz) was “relative geringer positiv chronotroper Aktivität”. The “positiv inotrope Wirkung” value (Langendorff-Herz) was “ausgeprägte und dosisabhängige positiv inotrope Wirkung”, the “chronotrope Wirkung” value [1] was “relative geringer positiv chronotroper Aktivität” and the “positiv inotrope Wirkung” value [1] was “ausgeprägte und dosisabhängige positiv inotrope Wirkung”.
